Data reported in patent publication US12173309B2, “Compounds for increasing genome editing efficiency” (Max-Planck-Gesellschaft zur Förderung der Wissenschaften …, priority 2017, dated 2024).

Key:
[1] = tested on: 409-B2 iCRISPR-Cas9D10A iPSCs; experiment: Precise genome editing (PGE) efficiency with iCRISPR Cas9D10A double nicking and ssODN donors, Illumina sequencing/CRISPResso; type: cell-based, human; conditions: Cas9D10A; for PGE increase (mean change vs control): 20 μM NU7026, 0.01 μM TSA, 0.5 μM MLN4924, 5 μM NSC 15520, CRISPY mix = all four
Method: (§1) FIG. 1: Genome editing and analysis flowchart. iCRISPR 409-B2 iPSCs are treated with 2 μg/ml doxycycline at least for 2 days to induce Cas9 or Cas9D10A expression. Reverse transfection with RNAiMAX, gRNA (7.5 nM each), ssODN (10 nM) and the small molecules to be evaluated is carried out in a 96 well plate for 1 day. The amount of cells used gives ˜80% confluency. Cells are then expanded for 3 days with regular media change. After harvest follows DNA extraction, PCR amplification of targeted loci, Illumina sequencing and CRISPResso (Pinello et al. 2016) sequence analysis for amount of indels and precise genome editing.
(§2) Cells were incubated with media containing 2 μg/ml doxycycline (Clontech, 631311) 2 days prior to lipofection. Lipofection (reverse transfection) was done using the alt-CRISPR manufacturer's protocol (IDT) with a final concentration of 7.5 nM of each gRNA and 10 nM of the respective ssODN. In brief, 0.75 μl RNAiMAX (Invitrogen, 13778075) and the respective oligonucleotides were separately diluted in 25 μl OPTI-MEM (Gibco, 1985-062) each and incubated at room temperature for 5 min. Both dilutions were mixed to yield 50 μl of OPTI-MEM including RNAiMAX, gRNAs and ssODNs. The lipofection mix was incubated for 20-30 min at room temperature. During incubation cells were dissociated using EDTA for 5 min and counted using the Countess Automated Cell Counter (Invitrogen). The lipofection mix, 100 μl containing 25.000 dissociated cells in mTeSR1 supplemented with Y-27632, 2 μg/ml doxycycline and the respective small molecule(s) to be tested were throughoutly mixed and put in one well of a 96 well covered with Matrigel Matrix (Corning, 35248). Media was exchanged to regular mTeSR1 media after 24 hours.
(§3) Three days after lipofection cells were dissociated using Accutase (SIGMA, A6964), pelleted, and resuspended in 15 μl QuickExtract (Epicentre, QE0905T). Incubation at 65° C. for 10 min, 68° C. for 5 min and finally 98° C. for 5 min was performed to yield ssDNA as a PCR template. Primers for each targeted loci of CALD1, KATNA1 and SLITRK1 containing adapters for Illumina sequencing were ordered from IDT (Coralville, USA). PCR was done in a T100 Thermal Cycler (Bio-Rad) using the KAPA2G Robust PCR Kit (Peqlab, 07-KK5532-03) with supplied buffer B and 3 μl of cell extract in a total volume of 25 μl. The thermal cycling profile of the PCR was: 95° C. 3 min; 34×(95° 15 sec, 65° C. 15 sec, 72° C. 15 sec); 72° C. 60 sec. P5 and P7 Illumina adapters with sample specific indices were added in a second PCR reaction (Kircher et al. 2012) using Phusion HF MasterMix (Thermo Scientific, F-531L) and 0.3 μl of the first PCR product. The thermal cycling profile of the PCR was: 98° C. 30 sec; 25× (98° 10 sec, 58° C. 10 sec, 72° C. 20 sec); 72° C. 5 min. Amplifications were verified by size separating agarose gel electrophoresis using EX gels (Invitrogen, G4010-11). The indexed amplicons were purified using Solid Phase Reversible Immobilization (SPRI) beads (Meyer, Kircher 2010). Double-indexed libraries were sequenced on a MiSeq (Illumina) giving paired-end sequences of 2×150 bp. After base calling using Bustard (Illumina) adapters were trimmed using leeHom (Renaud et al. 2014).
(§4) CRISPresso (Pinello et al. 2016) was used to analyse sequencing data from CRISPR genome editing experiments for percentage of wildtype, targeted nucleotide substitutions (TNS), indels and mix of TNS and indels. Parameters used for analysis were ‘-w 20’, ‘--min_identity_score 70’ and ‘--ignore_substitutions’ (analysis was restricted to amplicons with a minimum of 70% similarity to the wildtype sequence and to a window of 20 bp from each gRNA; substitutions were ignored, as sequencing errors would be falsely characterized as NHEJ-events). Sequencing data from colonies after single cell seeding (FIGS. 3B and C) was further analyzed by evaluating the actual read sequences using SAMtools. Clonal colonies were differentiated from mixed colonies using sequence read proportions. […]

[2] = tested on: 409-B2 iCRISPR-Cas9 iPSCs; experiment: PGE efficiency with iCRISPR Cas9 and ssODN donors; type: cell-based, human
Method: as §1, §2, §3, §4

[3] = CALD1, 20 μM NU7026, 5 μM NSC 15520
[4] = KATNA1, 20 μM NU7026, 5 μM NSC 15520
[5] = SLITRK1, 20 μM NU7026, 5 μM NSC 15520

Row | Structure (SMILES) | PGE increase (mean change vs control) ([1]; CALD1) [fold] | additional increase in PGE on addition to the mix of NU7026 and TSA ([1]; 0.5 μM MLN4924, p<0.01) [fold] | PGE increase (mean change vs control) ([1]; KATNA1) | PGE increase (mean change vs control) ([1]; SLITRK1) | effect on PGE frequency over CALD1, KATNA1 and SLITRK1 compared to controls ([2]; 0.01 μM TSA, 0.5 μM MLN4924, 1 μM NSC 19630, 20 μM AICAR, 1 μM RS-1, 1 μM Resveratrol, 1 μM SCR7, 5 μM L755507, 5 μM STL127685, 20 μM B02) | effect on PGE of further addition to the mix of NU7026, TSA and MLN4924 ([1]; all loci, 5 μM NSC 15520, then 1 μM NSC 19630, 20 μM AICAR, 1 μM RS-1 (FIG. 5A)) | PGE increase (mean change vs control) [2, 3] [fold] | PGE increase (mean change vs control) [2, 4] | PGE increase (mean change vs control) [2, 5] | higher PGE frequency than without the molecules ([1]; pooled across CALD1, KATNA1, SLITRK1 (FIG. 5A), p<0.001) [fold]
1 | NS(=O)(=O)OC[C@@H]1C[C@@H](n2ccc3c(N[C@H]4CCc5ccccc54)ncnc32)C[C@@H]1O [MLN4924, Pevonedistat] | 1.2 | 1.3 | 1.1 fold | 1.3 fold | slight diminishing effect |  |  |  |  | 
2 | CC(C)C1=CC23CCC4C(C)(C(=O)O)CCCC4(C)C2CC1C(C(=O)O)C3C(=O)O (stereo not shown) [NSC 15520, Fumaropimaric acid] | 1.4 |  | no effect | no effect |  | slightly increased | 1.3 | no effect | no effect | 
3 | O=c1cc(N2CCOCC2)oc2c1ccc1ccccc12 [NU7026] | 1.5 |  | 2.6 fold | 2.5 fold |  |  | 1.5 | 1.6 fold | 1.2 fold | 2.3
